From US11000491B2, “Amino-aryl-benzamide compounds and methods of use thereof” (HEPANOVA, INC., priority 2017, dated 2021)

Columns and labels:
Type in all cases: cell-based
FADS1 = assay: Lipogenic gene mRNA by real-time qPCR in Huh7 cells; conditions: 1 μM, 24 h
Source text: (§1) FIG. 8. Inhibition of various lipogenic gene mRNA levels following treatment with HPN-01. […] Sterol regulatory element-binding protein-1 (SREBP-1); Sterol regulatory element-binding protein-2 (SREBP-2); Fatty acid synthase (FASN); Stearoyl-CoA-desaturase (SCD1); Acetyl-CoA carboxylase (ACC); Elongation of very long chain fatty acids fatty acid elongase 6 (ELOVL6); Low density liporeceptor (LDLR); Fatty acid desaturase 1 (FADS1); Diacylglycerol 0-Acyltransferase 1 (DGAT1); Diacylglycerol 0-Acyltransferase 2 (DGAT2).
(§2) Huh7 cells were treated with 1 μM of HPN-01 for 24 h, and the mRNA expression levels of various pivotal lipogenic enzymes were quantified by real-time qPCR. […] Folds of inhibition were as follows: SREBP-1: 2.98±0.23; SREBP-2: 4.01±0.31; FASN: 3.87±0.23; SCD1: 4.63±0.48; ACC: 4.12±0.34; ELOVL6: 2.84±0.22; LDLR: 3.02±0.11; FADS1: 3.06±0.17; DGAT1: 1.72±0.27; DGAT2: 3.77±0.45.

LDLR = assay: as above; conditions: 1 μM, 24 h
Source text: as §1, §2

DGAT1 = assay: as above; conditions: 1 μM, 24 h
Source text: as §1, §2

SREBP-2 [1] = assay: as above; conditions: 1 μM, 24 h
Source text: as §1, §2

FASN = assay: as above; conditions: 1 μM, 24 h
Source text: as §1, §2

ACC = assay: as above; conditions: 1 μM, 24 h
Source text: as §1, §2

ELOVL6 = assay: as above; conditions: 1 μM, 24 h
Source text: as §1, §2

SREBP-1 = assay: as above; conditions: 1 μM, 24 h
Source text: as §1, §2

DGAT2 = assay: as above; conditions: 1 μM, 24 h
Source text: as §1, §2

SCD1 = assay: as above; conditions: 1 μM, 24 h
Source text: as §1, §2

Huh7 cells [2] = assay: Lipid droplet (LD) formation in Huh7 cells, BODIPY 493/503 staining, confocal microscopy; conditions: Homo sapiens, Huh-7, 24 h
Description: FIGS. 5A-5D. Effect of HPN-01 on hepatocellular lipid droplet (LD) biogenesis. Heptoma cell line Huh7 cells were treated with various amounts of HPN-01 for 24 hours, either in the absence or in the presence of 400 μM oleic acid, which triggers LD formation, after which intracellular LD contents were observed using a Zeiss confocal microscope with fluorescence. FIG. 5A) Fluorescent analysis of untreated (DMSO) or HPN-01-treated cells in the absence (Top panels) and presence (Bottom panels) of oleic acid. Cellular LD contents were stained using BODIPY 493/503 and are shown in green. Blue indicates cell nuclei. FIG. 5B) LD size of treated and untreated (DMSO) cells, in the presence or absence of oleic acid. FIG. 5C) Mean fluorescence intensity of untreated (DMSO) and treated cells in the absence of oleic acid. FIG. 5D) Mean fluorescence intensity of untreated (DMSO) and treated cells in the presence of oleic acid.
Heptoma cell line Huh7 cells were treated with various amounts of HPN-01 for 24 h, either in the absence or in the presence of 400 μM oleic acid, and observed under a Zeiss confocal microscope. […] LD contents (stained with BODIPY 493/503, in green) were observed under a Zeiss confocal microscope. FIG. 5A. Blue indicates cell nuclei. FIG. 5B. LD size. FIG. 5C. Mean fluorescence intensity. Values were measured using ZEN software by counting 300 cells under each treatment condition.

Huh7 cells [3] = assay: LD content in Huh7 cells pre-treated with insulin, Oil-Red-O staining, absorbance OD 540 nm; conditions: Homo sapiens, Huh-7; Huh7 cells pre-treated with 1 mM insulin, 24 h; read-out: LD contents IC50 (Oil-Red-O, OD 540 nm)
Method in brief: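 Huh7 cells, mock-treated or pre-treated with 1 mM insulin, were then exposed to compound at the indicated amounts. Lipid droplets stained with Oil Red O and quantified by absorbance at OD 540 nm.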

SREBP-2 [4] = assay: SREBP-2 expression in cultured primary human hepatocytes; conditions: Hepatocyte
Method in brief: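 Primary human hepatocytes in culture exposed to a range of HPN-01 derivative concentrations; SREBP-1 and SREBP-2 mRNA expression then measured to assess inhibition.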

Question: Which “Folds of inhibition FADS1 mRNA” value (FADS1) does the source give for `NC(=O)c1cc(-c2ccc(Cl)cc2)cc(-c2ccc(S(N)(=O)=O)cc2)c1N` [HPN-01, 2-amino-3-(p-sulfonamidophenyl)-5-(p-chlorophenyl) benzamide] here?
Answer: Its value is 3.06±0.17 fold.

Question: And the “Folds of inhibition LDLR mRNA” value (LDLR)?
Answer: The value was 3.02±0.11 fold.

Question: What about the “Folds of inhibition DGAT1 mRNA” value (DGAT1) of the same compound?
Answer: The value was 1.72±0.27 fold.

Question: And the “Folds of inhibition SREBP-2 mRNA” value (SREBP-2 [1])?
Answer: Its value is 4.01±0.31 fold.

Question: What about the “Folds of inhibition FASN mRNA” value (FASN) of the same compound?
Answer: Its value is 3.87±0.23 fold.

Question: What about the “Folds of inhibition ACC mRNA” value (ACC) of the same compound?
Answer: Its value is 4.12±0.34 fold.

Question: What about the “Folds of inhibition ELOVL6 mRNA” value (ELOVL6) of the same compound?
Answer: Its value is 2.84±0.22 fold.

Question: What about the “Folds of inhibition SREBP-1 mRNA” value (SREBP-1) of the same compound?
Answer: Its value is 2.98±0.23 fold.

Question: What about the “Folds of inhibition DGAT2 mRNA” value (DGAT2) of the same compound?
Answer: The value was 3.77±0.45 fold.

Question: What about the “Folds of inhibition SCD1 mRNA” value (SCD1) of the same compound?
Answer: The value was 4.63±0.48 fold.

Question: And the IC50 (Huh7 cells [2]; with oleic acid stimulation (400 μM))?
Answer: The IC50 was 270 nM.

Question: What about the IC50 (Huh7 cells [2]; without oleic acid pre-treatment) of the same compound?
Answer: The IC50 was 460 nM.

Question: And the IC50 (Huh7 cells [3])?
Answer: The IC50 was 250 nM.

Question: And the IC50 (SREBP-2 [4])?
Answer: The IC50 was 3430 nM.
